Results as given in publication PMC11729419, “Thiol-Reactive or Redox-Active: Revising a Repurposing Screen Led to a New Invalidation Pipeline and Identified a True Noncovalent Inhibitor Against Papain-like Protease from SARS-CoV-2” (ACS Pharmacology & Translational Science, 2024).

Legend:
SARS-CoV-2 PLpro-NAB = SARS-CoV-2 PLpro-NAB (Severe acute respiratory syndrome coronavirus 2, UniProt P0DTD1); experiment: biochemical; conditions: for HP PLpro-NAB inhibition [%] 20 μM triplicates 1 mM L-cys buffer: hit profiling
PLpro-NAB [1] = biological target: T1, PLpro-NAB (Severe acute respiratory syndrome coronavirus 2, UniProt P0DTD1); type: binding, SARS-CoV-2; conditions: consistent in both DTT and L-Cys buffers
PLpro-NAB C111S = PLpro-NAB C111S (Severe acute respiratory syndrome coronavirus 2, UniProt P0DTD1, C1674S); type: binding, SARS-CoV-2
PLpro-NAB [2] = biological target: T1, PLpro-NAB; experiment: STD-NMR ligand binding and competition; set-up: species or system SARS-CoV-2; conditions: for STD amplification factor AMP: 0.15 mM compound, PLpro/compound 1:100

## CCS(=O)(=O)N1CCC([C@@H](C)n2c(C)c(C(=O)NCc3c(OC)cc(C)[nH]c3=O)c3ccccc32)CC1 [CPI-169]
SARS-CoV-2 PLpro-NAB; 1 mM L-cysteine vs 1 mM DTT
  Inhibition in L-cysteine buffer versus DTT buffer (dose-response): did not show variations in inhibition potency or thermal stability
SARS-CoV-2 PLpro-NAB; 50% inhibition at 20 μM, 1 mM L-cysteine
  Inhibitory activity on retest in 1 mM L-cysteine: retained their inhibitory activity
SARS-CoV-2 PLpro-NAB; hit confirmation, 20 μM, 1 mM DTT buffer, average (SD), 20 μM PR619 = 100%, DMSO = 0%, listed as CPI-169 (FhG)
  HC PLpro-NAB inhibition [%] 20 μM triplicates 1 mM DTT buffer: 99.81 (2.18) %
SARS-CoV-2 PLpro-NAB; hit confirmation, 20 μM, 1 mM DTT buffer, average (SD), 20 μM PR619 = 100%, DMSO = 0%, read-out: HC PLpro-NAB inhibition [%] 20 μM triplicates 1 mM DTT buffer
  inhibition at 20 µM: 96%
SARS-CoV-2 PLpro-NAB; 20 μM, average (SD), 20 μM PR619 = 100%, listed as CPI-169 (EOS)
  HP PLpro-NAB inhibition [%] 20 μM triplicates 1 mM L-cys buffer: 49.41 (2.14) %
SARS-CoV-2 PLpro-NAB; 20 μM, average (SD), 20 μM PR619 = 100%, listed as CPI-169 (FhG)
  HP PLpro-NAB inhibition [%] 20 μM triplicates 1 mM L-cys buffer: 70.67 (1.71) %
PLpro-NAB [1]
  Tm value of PLpro-NAB: concentration-dependent increase in the Tm value
PLpro-NAB C111S
  Tm / stability of PLpro-NAB C111S: increased the Tm
PLpro-NAB [2]
  Competitive STD-NMR with GRL-0617: displacement of CPI-169 from the GRL-0617 binding site
PLpro-NAB [2]; proton H11
  STD amplification factor AMP: 0.74
PLpro-NAB [2]; proton H13
  STD amplification factor AMP: 1.19
PLpro-NAB [2]; proton H23
  STD amplification factor AMP: 0.43
PLpro-NAB [2]; proton H35
  STD amplification factor AMP: 0.89
